Data: patent EP0505640B2, “Improved therapeutic method” (ELI LILLY AND COMPANY, priority 1991, dated 1992)
Read-outs that look alike come from different tables or passages of the source. Blank lines part the entries; values can stand above or below the compound they belong to.

Assays:
bovine FBP = bovine FBP (Bos taurus, UniProt P02702); assay: Folate binding constant, procedure of Dunn and Foster
Method: As noted above, the drug products which can be employed in the present invention include other GAR-transformylase or TS inhibitors which are capable of binding to folate binding protein. Folic acid itself has a binding constant (ng/ml) of 1.8, and lometrexol has a binding constant of 9.7 to bovine FBP. Any GAR-transformylase or TS inhibitor that binds at less than about 500 ng/ml can be utilized in the method of this invention. The folate binding constant for drug products can be readily determined by the general procedure of Dunn and Foster, Clin. Chem., 19 (10), 1101-1105 (1973).

[1] = system: nasalpharyngeal carcinoma; settings: one subject with nasalpharyngeal carcinoma, folic acid 0.5 to 1.0 mg/day, after the 12 months of therapy
[2] = system: C3H strain of mammary adenocarcinoma; assay: Antitumor activity against implanted C3H mammary adenocarcinoma in mice; assay type: in vivo
Method: (§1) In one such test, mice are inoculated with the C3H strain of mammary adenocarcinoma by inserting a 2 mm by 2 mm section of tumor into the axillary region of the mice by trocar. In all experiments, lometrexol was administered intraperitoneally once a day for five consecutive days, starting on the day following tumor implantation. Ten animals were used at each dosage level. Antitumor activity was assessed on day ten by measuring the length and width of the tumor growth using vernier calipers, and the activity was expressed as a percent inhibition of tumor growth.

C3H Mice = assay: Toxicity measured as death of tumor-bearing C3H mice; assay type: in vivo
Method: as §1

[3] = read-out: Binding Constant, folate binding protein

bovine FBP, sequence (P02702 20-234): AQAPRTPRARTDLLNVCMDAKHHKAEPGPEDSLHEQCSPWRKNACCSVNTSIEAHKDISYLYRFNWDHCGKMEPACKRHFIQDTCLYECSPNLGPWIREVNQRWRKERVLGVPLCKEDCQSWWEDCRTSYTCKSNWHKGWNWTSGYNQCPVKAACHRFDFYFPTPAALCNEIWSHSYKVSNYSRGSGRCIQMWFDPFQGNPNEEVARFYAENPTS

- Kd (bovine FBP; folate binding protein, read-out: Binding Constant (converted)): 4.08 nM
Compound: Nc1nc2ncc(CNc3ccc(C(=O)N[C@@H](CCC(=O)O)C(=O)O)cc3)nc2c(=O)[nH]1 [Folic acid]

Compound: Nc1nc(O)c2c(n1)NCC(CCCc1ccc(C(=O)NC(CCC(=O)O)C(=O)O)cc1)C2 (stereo not shown) [n = 3 X = H]
- Kd (bovine FBP): 27.3 nM

Compound: C#CCN(Cc1ccc2[nH]c(N)nc(=O)c2c1)c1ccc(C(=O)NC(CCC(=O)O)C(=O)O)cc1 (stereo not shown)
- Kd (bovine FBP; [3]): 25.1 nM

Compound: Nc1nc2c(c(=O)[nH]1)CC(CCc1ccc(C(=O)N[C@@H](CCC(=O)O)C(=O)O)cc1)CN2 (stereo partly shown) [Lometrexol, 5,10-dideazatetrahydrofolic acid]
- clinical evidence of disease [1]: no clinical evidence of disease
- Kd (bovine FBP): 21.9 nM
- Antitumor Activity (% Inhibition) ([2]; Lometrexol 0.0625 mg/kg i.p. once a day for five days, two weeks on folate-free diet, assessed day ten): 0%
- Antitumor Activity (% Inhibition) ([2]; Lometrexol 0.125 mg/kg i.p. once a day for five days, folate-free diet plus 0.0003% folate in drinking water, day ten): 13%
- Antitumor Activity (% Inhibition) ([2]; Lometrexol 0.125 mg/kg i.p. once a day for five days, two weeks on folate-free diet, assessed day ten): 0%
- Antitumor Activity (% Inhibition) ([2]; Lometrexol 0.25 mg/kg i.p. once a day for five days, folate-free diet plus 0.0003% folate in drinking water, day ten): 26%
- Antitumor Activity (% Inhibition) ([2]; Lometrexol 0.25 mg/kg i.p. once a day for five days, two weeks on folate-free diet, assessed day ten): 21%
- Antitumor Activity (% Inhibition) ([2]; Lometrexol 0.5 mg/kg i.p. once a day for five days, folate-free diet plus 0.0003% folate in drinking water, day ten): 48%
- Antitumor Activity (% Inhibition) ([2]; Lometrexol 0.5 mg/kg i.p. once a day for five days, two weeks on folate-free diet, assessed day ten): 88%
- Antitumor Activity (% Inhibition) ([2]; Lometrexol 1.0 mg/kg i.p. once a day for five days, folate-free diet plus 0.0003% folate in drinking water, day ten): 97%
- Antitumor Activity (% Inhibition) ([2]; Lometrexol 1.0 mg/kg i.p. once a day for five days, two weeks on folate-free diet, assessed day ten): 100%
- Antitumor Activity (% Inhibition) ([2]; Lometrexol 2.0 mg/kg i.p. once a day for five days, folate-free diet plus 0.0003% folate in drinking water, day ten): 98%
- Antitumor Activity (% Inhibition) ([2]; Lometrexol 4.0 mg/kg i.p. once a day for five days, folate-free diet plus 0.0003% folate in drinking water, day ten): 99%
- Antitumor Activity (% Inhibition) ([2]; Lometrexol 6.25 mg/kg i.p. once a day for five days, folate-free diet plus 0.003% folate in drinking water, day ten): 91%
- Antitumor Activity (% Inhibition) ([2]; Lometrexol 12.5 mg/kg i.p. once a day for five days, folate-free diet plus 0.003% folate in drinking water, day ten): 89%
- Antitumor Activity (% Inhibition) ([2]; Lometrexol 25 mg/kg i.p. once a day for five days, folate-free diet plus 0.003% folate in drinking water, day ten): 97%
- Antitumor Activity (% Inhibition) ([2]; Lometrexol 50 mg/kg i.p. once a day for five days, folate-free diet plus 0.003% folate in drinking water, day ten): 96%
- Toxicity (Mice Dead/Total Mice) (C3H Mice; Lometrexol 0.0625 mg/kg i.p. once a day for five days, two weeks on folate-free diet): 0/10
- Toxicity (Mice Dead/Total Mice) (C3H Mice; Lometrexol 0.125 mg/kg i.p. once a day for five days, folate-free diet plus 0.0003% folate in drinking water): 0/10
- Toxicity (Mice Dead/Total Mice) (C3H Mice; Lometrexol 0.125 mg/kg i.p. once a day for five days, two weeks on folate-free diet): 0/10
- Toxicity (Mice Dead/Total Mice) (C3H Mice; Lometrexol 0.25 mg/kg i.p. once a day for five days, folate-free diet plus 0.0003% folate in drinking water): 0/10
- Toxicity (Mice Dead/Total Mice) (C3H Mice; Lometrexol 0.25 mg/kg i.p. once a day for five days, two weeks on folate-free diet): 0/10
- Toxicity (Mice Dead/Total Mice) (C3H Mice; Lometrexol 0.5 mg/kg i.p. once a day for five days, folate-free diet plus 0.0003% folate in drinking water): 0/10
- Toxicity (Mice Dead/Total Mice) (C3H Mice; Lometrexol 0.5 mg/kg i.p. once a day for five days, two weeks on folate-free diet): 0/10
- Toxicity (Mice Dead/Total Mice) (C3H Mice; Lometrexol 1.0 mg/kg i.p. once a day for five days, folate-free diet plus 0.0003% folate in drinking water): 0/10
- Toxicity (Mice Dead/Total Mice) (C3H Mice; Lometrexol 1.0 mg/kg i.p. once a day for five days, two weeks on folate-free diet): 8/10
- Toxicity (Mice Dead/Total Mice) (C3H Mice; Lometrexol 1.0 mg/kg i.p. once a day for five days, two weeks on folate-free diet, listed as lometrexol): lethal to the majority of the mice
- Toxicity (Mice Dead/Total Mice) (C3H Mice; Lometrexol 2.0 mg/kg i.p. once a day for five days, folate-free diet plus 0.0003% folate in drinking water): 0/10
- Toxicity (Mice Dead/Total Mice) (C3H Mice; Lometrexol 4.0 mg/kg i.p. once a day for five days, folate-free diet plus 0.0003% folate in drinking water): 4/10
- Toxicity (Mice Dead/Total Mice) (C3H Mice; Lometrexol 6.25 mg/kg i.p. once a day for five days, folate-free diet plus 0.003% folate in drinking water): 0/10
- Toxicity (Mice Dead/Total Mice) (C3H Mice; Lometrexol 12.5 mg/kg i.p. once a day for five days, folate-free diet plus 0.003% folate in drinking water): 0/10
- Toxicity (Mice Dead/Total Mice) (C3H Mice; Lometrexol 25 mg/kg i.p. once a day for five days, folate-free diet plus 0.003% folate in drinking water): 0/10
- Toxicity (Mice Dead/Total Mice) (C3H Mice; Lometrexol 50 mg/kg i.p. once a day for five days, folate-free diet plus 0.003% folate in drinking water): 0/10

Compound: Nc1nc(O)c2c(n1)NCC(CCc1ccc(C(=O)NC(CCC(=O)O)C(=O)O)s1)C2 (stereo not shown)
- Kd (bovine FBP; [3]): 54.5 nM

Compound: Nc1nc(O)c2c(n1)NCC(CCC1CCC(C(=O)NC(CCC(=O)O)C(=O)O)CC1)C2 (stereo not shown)
- Kd (bovine FBP; [3]): 57.8 nM

Compound: Cc1nc2ccc(CN(C)c3ccc(C(=O)NC(CCC(=O)O)C(=O)O)s3)cc2c(=O)[nH]1 (stereo not shown)
- Kd (bovine FBP; [3]): 534 nM

Compound: Nc1nc(O)c2c(n1)NCC(CCc1ccc(C(=O)NC(CCC(=O)O)C(=O)O)o1)C2 (stereo not shown)
- Kd (bovine FBP; [3]): 579 nM
